Results as given in ChEMBL document CHEMBL3627604, “Design of novel 3,6-diazabicyclo[3.1.1]heptane derivatives with potent and selective affinities for α4β2 neuronal nicotinic acetylcholine receptors” (Eur J Med Chem, 2015).
Calls of active or inactive are those of the source. No cut-off for these calls is given here.

How the values were obtained:
[1] = target: Neuronal acetylcholine receptor subunit alpha-7 (Rattus norvegicus, UniProt Q05941); assay: Displacement of [125I]alpha-Bungarotoxin from alpha7 nAChR in Sprague-Dawley rat hippocampal membranes pre-incubated for 5 mins followed by overnight incubation by radioligand liquid scintillation counter analysis
Sequence of Neuronal acetylcholine receptor subunit alpha-7 (Q05941 whole entry): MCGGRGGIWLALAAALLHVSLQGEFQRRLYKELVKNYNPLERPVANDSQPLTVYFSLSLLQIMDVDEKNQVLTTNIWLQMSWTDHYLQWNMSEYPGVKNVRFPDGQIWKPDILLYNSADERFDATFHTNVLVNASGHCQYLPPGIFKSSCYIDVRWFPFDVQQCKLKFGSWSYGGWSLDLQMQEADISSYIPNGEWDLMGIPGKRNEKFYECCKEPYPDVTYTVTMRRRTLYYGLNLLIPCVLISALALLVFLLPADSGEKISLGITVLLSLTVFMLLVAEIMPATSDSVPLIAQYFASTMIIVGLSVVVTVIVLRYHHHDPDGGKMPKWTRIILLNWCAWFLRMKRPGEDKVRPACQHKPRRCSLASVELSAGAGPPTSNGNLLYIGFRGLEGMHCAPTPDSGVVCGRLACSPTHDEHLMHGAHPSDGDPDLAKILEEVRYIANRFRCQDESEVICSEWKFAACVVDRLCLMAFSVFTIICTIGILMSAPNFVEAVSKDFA

Rattus norvegicus [2] = organism: Rattus norvegicus; assay: Selectivity ratio of Ki for alpha7 nAChR in Sprague-Dawley rat hippocampal membranes to Ki for alpha4beta2 nAChR in Sprague-Dawley rat cortical membranes
[3] = Displacement of [3H]-Epibatidine from alpha4beta2* nAChR in Sprague-Dawley rat cortical membranes pre-incubated for 5 mins followed by overnight incubation by radioligand liquid scintillation counter analysis
[4] = Antagonist activity against alpha6beta2* nAChR in Sprague-Dawley rat […] assessed as inhibition of nicotine-induced [3H]-dopamine release after 5 mins by microbeta counting
[5] = target: Neuronal acetylcholine receptor; alpha3/beta4 (Homo sapiens, UniProt P30926+P32297); assay: Displacement of [3H]-Epibatidine from human aplha3beta4 nAChR expressed in HEK293 cells pre-incubated for 5 mins followed by overnight incubation by radioligand liquid scintillation counter analysis; assay type: cell-based
Sequence of Neuronal acetylcholine receptor; alpha3/beta4 (P30926 whole entry): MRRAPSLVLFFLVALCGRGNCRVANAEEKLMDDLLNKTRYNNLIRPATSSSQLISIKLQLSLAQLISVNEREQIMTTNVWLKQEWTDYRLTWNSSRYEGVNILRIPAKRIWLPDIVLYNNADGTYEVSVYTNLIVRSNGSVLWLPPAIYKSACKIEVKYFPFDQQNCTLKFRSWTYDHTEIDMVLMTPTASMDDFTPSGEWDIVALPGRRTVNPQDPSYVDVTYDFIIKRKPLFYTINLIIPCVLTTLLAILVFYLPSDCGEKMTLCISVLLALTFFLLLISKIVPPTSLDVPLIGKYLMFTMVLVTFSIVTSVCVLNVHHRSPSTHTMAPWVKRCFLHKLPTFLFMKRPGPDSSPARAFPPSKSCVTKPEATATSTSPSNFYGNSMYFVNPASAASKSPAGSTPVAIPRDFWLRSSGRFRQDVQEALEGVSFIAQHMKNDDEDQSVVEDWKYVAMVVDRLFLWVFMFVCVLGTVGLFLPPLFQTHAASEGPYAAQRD
Sequence of Neuronal acetylcholine receptor; alpha3/beta4 (P32297 whole entry): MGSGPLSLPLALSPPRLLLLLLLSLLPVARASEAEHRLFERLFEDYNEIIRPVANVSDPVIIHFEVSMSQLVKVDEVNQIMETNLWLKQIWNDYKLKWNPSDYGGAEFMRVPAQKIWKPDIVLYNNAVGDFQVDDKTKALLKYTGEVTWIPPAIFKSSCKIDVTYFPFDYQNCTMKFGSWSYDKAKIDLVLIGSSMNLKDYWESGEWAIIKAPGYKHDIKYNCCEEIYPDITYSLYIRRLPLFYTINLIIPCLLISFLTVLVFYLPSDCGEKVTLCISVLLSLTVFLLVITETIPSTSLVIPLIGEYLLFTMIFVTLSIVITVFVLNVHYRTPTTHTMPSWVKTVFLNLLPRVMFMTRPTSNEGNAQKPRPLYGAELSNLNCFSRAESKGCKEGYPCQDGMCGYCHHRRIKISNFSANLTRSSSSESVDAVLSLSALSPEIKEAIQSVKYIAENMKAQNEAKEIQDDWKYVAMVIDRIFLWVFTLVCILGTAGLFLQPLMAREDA

[6] = target: Neuronal acetylcholine receptor; alpha4/beta2 (Rattus norvegicus, UniProt P09483+P12390); assay: Agonist activity at alpha4beta2 nAChR in Sprague-Dawley rat striatal slices assessed as increase in [3H]-Dopamine release after 5 mins by microbeta counting; assay type: protein-complex assay
Sequence of Neuronal acetylcholine receptor; alpha4/beta2 (P09483 whole entry): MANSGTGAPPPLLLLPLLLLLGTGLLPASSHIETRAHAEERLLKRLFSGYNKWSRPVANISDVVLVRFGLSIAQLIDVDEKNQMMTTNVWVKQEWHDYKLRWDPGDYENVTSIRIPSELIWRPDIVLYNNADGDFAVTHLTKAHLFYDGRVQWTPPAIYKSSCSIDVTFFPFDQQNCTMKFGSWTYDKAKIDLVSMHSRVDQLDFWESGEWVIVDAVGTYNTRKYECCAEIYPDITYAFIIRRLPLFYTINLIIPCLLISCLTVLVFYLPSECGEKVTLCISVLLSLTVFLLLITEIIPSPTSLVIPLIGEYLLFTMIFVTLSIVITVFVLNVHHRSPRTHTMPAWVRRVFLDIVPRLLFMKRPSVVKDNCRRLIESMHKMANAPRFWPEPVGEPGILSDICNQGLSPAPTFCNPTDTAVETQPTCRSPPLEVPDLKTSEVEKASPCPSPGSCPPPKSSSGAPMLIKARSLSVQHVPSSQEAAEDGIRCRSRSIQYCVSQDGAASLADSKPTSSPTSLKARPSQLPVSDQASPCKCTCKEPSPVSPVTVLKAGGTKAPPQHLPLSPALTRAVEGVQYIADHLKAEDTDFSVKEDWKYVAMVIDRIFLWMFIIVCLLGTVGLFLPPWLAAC
Sequence of Neuronal acetylcholine receptor; alpha4/beta2 (P12390 whole entry): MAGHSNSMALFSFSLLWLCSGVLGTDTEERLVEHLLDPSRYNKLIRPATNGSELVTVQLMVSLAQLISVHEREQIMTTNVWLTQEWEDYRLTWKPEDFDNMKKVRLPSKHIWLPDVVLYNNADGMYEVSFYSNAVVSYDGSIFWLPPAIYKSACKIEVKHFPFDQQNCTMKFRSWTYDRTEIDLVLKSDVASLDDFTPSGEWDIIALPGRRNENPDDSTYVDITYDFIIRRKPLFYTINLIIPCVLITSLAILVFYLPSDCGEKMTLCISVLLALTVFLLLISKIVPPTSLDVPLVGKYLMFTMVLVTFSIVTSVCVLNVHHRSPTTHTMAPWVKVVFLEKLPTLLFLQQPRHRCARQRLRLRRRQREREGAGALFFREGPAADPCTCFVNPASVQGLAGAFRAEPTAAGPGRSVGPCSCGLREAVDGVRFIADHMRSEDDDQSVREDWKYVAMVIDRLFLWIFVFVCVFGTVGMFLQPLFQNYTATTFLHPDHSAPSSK

[7] = Displacement of [3H]-Epibatidine from aplha6beta2* nAChR in Sprague-Dawley rat cortical membranes pre-incubated for 5 mins followed by overnight incubation by radioligand liquid scintillation counter analysis
HEK293 = assay: Selectivity ratio of Ki for aplha6beta2* nAChR in Sprague-Dawley rat cortical membranes to Ki for human aplha3beta4 nAChR expressed in HEK293 cells; assay type: cell-based
[8] = target: Neuronal acetylcholine receptor; alpha4/beta2 (Rattus norvegicus) (UniProt P09483+P12390); assay: Agonist activity at alpha4beta2 nAChR in Sprague-Dawley rat striatal slices assessed as increase in [3H]-dopamine release after 5 mins by microbeta counting relative to nicotine; assay type: protein-complex assay
Rattus norvegicus [9] = organism: Rattus norvegicus; assay: Agonist activity at aplha6beta2* nAChR in Sprague-Dawley rat striatal slices assessed as stinulation of [3H]-dopamine release in presence of 100 nM alpha-conotoxin MII after 5 mins by microbeta counting
[10] = Binding affinity to alpha4beta2* nAChR in Sprague-Dawley rat cortical membranes after overnight incubation by radioligand liquid scintillation counter analysis

| SMILES | Ki [1] | Ratio Ki (Rattus norvegicus [2]) | Ki [3] | further results |
| --- | --- | --- | --- | --- |
| COc1ccc(-c2cncc(N3CC4CC(C3)N4)c2)cc1 | 6500 nM | 537000 | 0.0121 nM |  |
| c1ccc(-c2cncc(N3CC4CC(C3)N4)c2)cc1 | 17000 nM | 1.52e+06 | 0.0112 nM | IC50 [4]: 5.87 nM; Ki [5]: 6.1 nM; EC50 [6]: Not Active; Ki [7]: 0.0112 nM; Ratio Ki (HEK293): 521 |
| O=[N+]([O-])c1ccc(-c2cncc(N3CC4CC(C3)N4)c2)cc1 | 5000 nM | 478000 | 0.0105 nM |  |
| Clc1ccc(Cl)c(-c2cncc(N3CC4CC(C3)N4)c2)c1 | 6000 nM | 90000 | 0.0667 nM |  |
| Clc1ccc(N2CC3CC(C2)N3)cn1 |  |  |  | Ki [5]: 0.2 nM; Efficacy [8]: 120%; Activity (Rattus norvegicus [9]): inactive; EC50 ([6]; read-out: EC50): 1.16 nM; Ki [7]: 0.0048 nM |
| Cc1ccc(-c2cncc(N3CC4CC(C3)N4)c2)cc1 | 96000 nM | 6.69e+06 | 0.0143 nM |  |
| Clc1ccc(-c2cncc(N3CC4CC(C3)N4)c2)cc1Cl | 36000 nM | 397000 | 0.0908 nM |  |
| Clc1cncc(N2CC3CC(C2)N3)c1 | 73 nM | 11600 | 0.00632 nM | Ki [5]: 2.6 nM; Efficacy [8]: 111%; Activity (Rattus norvegicus [9]): inactive; EC50 ([6]; read-out: EC50): 1.4 nM; Ki [7]: 0.0112 nM; Ratio Ki (HEK293): 411 |
| Fc1ccc(-c2cncc(N3CC4CC(C3)N4)c2)cc1 | 110000 nM | 4.44e+06 | 0.0248 nM | IC50 [4]: 0.7 nM; Ki [5]: 1.6 nM; EC50 [6]: Not Active; Ki [7]: 0.032 nM |
| Brc1ccc(-c2cncc(N3CC4CC(C3)N4)c2)cc1 | 34000 nM | 226000 | 0.151 nM |  |
| Clc1ccc(-c2cncc(N3CC4CC(C3)N4)c2)cc1 | 48000 nM | 1.46e+06 | 0.0328 nM |  |
| Clc1ccc([C@@H]2C[C@H]3CC[C@@H]2N3)cn1 [(+)-EPIBATIDINE] |  |  |  | Ki [10]: 0.043 nM |
| Brc1cncc(N2CC3CC(C2)N3)c1 | 176 nM | 30800 | 0.00572 nM |  |
| Clc1ccc(-c2cncc(N3CC4CC(C3)N4)c2)c(Cl)c1 | 13000 nM |  | 0.0821 nM |  |
